In patent US20260199350A1, “FLAVONES, QUINOLINONES, QUINAZOLINONES, AND AURONES, AND USES IN CK2-MEDIATED DISEASES” (Salk Institute for Biological Studies, priority 2022, published 2026):
pIC50: −log10 of the molar value. In brackets after ≈: the same amount, converted by molar mass. Like-named read-outs stand apart in the source and are kept apart here.

What was measured:
IL-6 secretion = IL-6 secretion assay in astrocytes (Promega Lumit IL-6 kit); format: cell-based, human; settings: Homo sapiens, Astrocyte, read-out: IL6-Inhib.
Procedure: IL-6 secretion assay. HCAs were plated at 20,000 cells per well in white clear bottom 96-well plates. Two to three days later, media was removed and replaced with media containing 10 ng/mL IL1B and compound dilution series. Five hours later, plates were processed using the Lumit IL-6 Assay Kit (Promega W6030) according to the manufacturer's instructions.
• ^1Radiometric kinase assay from Eurofins. Performed in astrocytes with a Promega Lumit IL-6 kit. A series of halogenated flavones was generated and assayed (Table 3).

CK2A1 = target: T1, CK2A1 (Homo sapiens, UniProt P68400); test: Radiometric kinase assay (Eurofins), CK2A1; format: biochemical
T1 construct: purchased Eurofins
Source text: FIGS. 4A-4F characterize flavones for in vitro and in-cell CK2 inhibition. […] Representative of two independent experiments. […] Nonlinear fit was used to calculate IC50. […] Nonlinear fit was used to calculate IC50. […] Nonlinear fit was used to calculate IC50. […] Normalized to DMSO, data are representative of three independent experiments.
(§1) • ^1Radiometric kinase assay from Eurofins. Performed in astrocytes with a Promega Lumit IL-6 kit.

CK2A2 = target: T2, CK2A2 (Homo sapiens, UniProt P19784); test: Radiometric kinase assay (Eurofins), CK2A2; format: biochemical
T2 construct: purchased Eurofins
Source text: as §1

Aqueous solubility = format: physicochemical
[1] = Table 2, read-out: CK2A1 RAD IC50
[2] = Table 2, read-out: CK2A2 RAD IC50
[3] = Table 10, aurones, read-out: CK2A1 IC50
[4] = Table 10, aurones, read-out: CK2A2 IC50
[5] = Table 3, halogenated flavones, read-out: CK2A1 RAD IC50
[6] = Table 3, halogenated flavones, read-out: CK2A2 RAD IC50
[7] = aqueous (not further specified), Table 3, read-out: Aqueous Solubility

T1 sequence (P68400 whole entry): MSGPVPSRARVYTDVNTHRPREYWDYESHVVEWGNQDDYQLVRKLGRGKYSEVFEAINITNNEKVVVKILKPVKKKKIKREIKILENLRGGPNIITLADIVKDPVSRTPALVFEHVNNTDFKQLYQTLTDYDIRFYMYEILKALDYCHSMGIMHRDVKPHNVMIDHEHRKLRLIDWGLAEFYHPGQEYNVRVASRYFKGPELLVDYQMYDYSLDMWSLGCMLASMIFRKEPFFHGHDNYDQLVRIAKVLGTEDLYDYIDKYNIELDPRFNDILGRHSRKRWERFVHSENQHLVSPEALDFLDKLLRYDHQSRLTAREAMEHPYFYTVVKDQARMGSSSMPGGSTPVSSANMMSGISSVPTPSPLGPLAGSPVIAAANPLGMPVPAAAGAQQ
T2 sequence (P19784 whole entry): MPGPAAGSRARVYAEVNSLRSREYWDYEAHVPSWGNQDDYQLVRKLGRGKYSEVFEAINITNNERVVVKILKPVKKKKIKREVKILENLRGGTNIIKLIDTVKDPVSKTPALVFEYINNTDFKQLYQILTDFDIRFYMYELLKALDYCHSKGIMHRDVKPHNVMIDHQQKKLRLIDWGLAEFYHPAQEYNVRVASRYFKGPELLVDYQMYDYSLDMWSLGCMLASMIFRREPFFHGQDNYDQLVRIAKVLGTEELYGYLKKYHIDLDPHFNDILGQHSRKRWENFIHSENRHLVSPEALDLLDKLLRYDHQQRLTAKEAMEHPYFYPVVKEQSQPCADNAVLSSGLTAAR

Row | pIC50 (IL-6 secretion; Table 2, astrocytes) | pIC50 (CK2A1; [1]) | pIC50 (CK2A2; [2]) | pIC50 (IL-6 secretion; Table 10) | pIC50 (CK2A1; [3]) | pIC50 (CK2A2; [4]) | solubility (Aqueous solubility; Table 10, read-out: Solubility) | SMILES | also measured
1 |  |  |  | 5.74 | 6.27 | 6.67 | 22 µM (≈ 10.2 µg/mL) | O=C1/C(=C/c2ccc(O)c(C(F)(F)F)c2)Oc2c(Br)cc(Br)cc21 [JKT.635A] | 
2 |  |  |  | < 5.00 | 6.27 | 7.21 | > 200 µM | O=C(O)c1ccc(/C=C2\Oc3c(Br)cc(Br)cc3C2=O)cc1 [JKT.636A] | Window of selectivity for CK2A2 over CK2A1 (CK2A2): nine-fold
3 |  |  |  | < 5.00 | < 5.30 | < 5.30 | 52.4 µM (≈ 19.4 µg/mL) | O=C1/C(=C/c2ccco2)Oc2c(Br)cc(Br)cc21 [JKT.637A] | 
4 |  |  |  | < 5.00 | < 5.30 | < 5.30 | 30.2 µM (≈ 11.2 µg/mL) | O=C1/C(=C/c2ccoc2)Oc2c(Br)cc(Br)cc21 [JKT.638A] | 
5 | 5.70 | 8.30 | 8.10 |  |  |  |  | COc1nc(-c2cc(=O)c3cccc(Br)c3o2)ccc1O [JKT.666A] | 
6 | 5.54 | 8.15 | 8.30 |  |  |  |  | COc1nc(-c2cc(=O)c3cc(Cl)cc(Br)c3o2)ccc1O [JKT.669A] | 
7 | 5.44 | 7.77 | 8.10 |  |  |  |  | COc1nc(-c2cc(=O)c3cc(Cl)cc(Cl)c3o2)ccc1O [JKT.678A] | 
8 | 5.07 | 6.61 | 7.31 |  |  |  |  | COc1cc(-c2cc(=O)c3cc(Br)c(OC)c(Br)c3o2)ccc1O [JKT.706A] | 

Continued, compound first:

Row | SMILES | pIC50 (IL-6 secretion; Table 2, astrocytes) | pIC50 (CK2A1; [1]) | pIC50 (CK2A2; [2]) | pIC50 (IL-6 secretion; Table 10) | pIC50 (CK2A1; [3]) | pIC50 (CK2A2; [4]) | solubility (Aqueous solubility; Table 10, read-out: Solubility) | also measured
9 | O=c1cc(-c2ccc(O)c(Br)c2)oc2c(Br)cc(Br)cc12 [JKT.464A] | 5.30 | 7.72 | 8.52 |  |  |  |  | 
10 | O=c1cc(-c2cc(Cl)c(O)c(Cl)c2)oc2c(Br)cc(Br)cc12 [JKT.465A] | 5.31 | 6.87 | 7.35 |  |  |  |  | 
11 | Cc1cc(-c2cc(=O)c3cc(Br)cc(Br)c3o2)ccc1O [JKT.475A] | < 5.00 | < 5.30 | 5.69 |  |  |  |  | 
12 | COc1nc(-c2cc(=O)c3cc(Br)cc(Br)c3o2)ccc1O [JKT.606A] | 5.46 | 8.05 | 8.40 |  |  |  |  | 
13 | O=C1/C(=C/c2ccc(O)cc2)Oc2c(Br)cc(Br)cc21 [JKT.629A] |  |  |  | 5.10 | < 5.30 | < 5.30 | 5.6 µM (≈ 2.22 µg/mL) | 
14 | COc1cc(/C=C2\Oc3c(Br)cc(Br)cc3C2=O)ccc1O [JKT.630A] |  |  |  | 5.01 | 6.68 | 6.56 | 3 µM (≈ 1.28 µg/mL) | 
15 | O=C1/C(=C/c2cccc(O)c2)Oc2c(Br)cc(Br)cc21 [JKT.631A] |  |  |  | < 5.00 | < 5.30 | < 5.30 | 22.6 µM (≈ 8.95 µg/mL) | 
16 | N#Cc1ccc(/C=C2\Oc3c(Br)cc(Br)cc3C2=O)cc1 [JKT.632A] |  |  |  | 5.00 | < 5.30 | < 5.30 | > 200 µM | 
17 | O=C1/C(=C/c2ccc(-c3nnn[nH]3)cc2)Oc2c(Br)cc(Br)cc21 [JKT.633A] |  |  |  | < 5.00 | < 5.30 | < 5.30 | 102 µM (≈ 45.8 µg/mL) | 
18 | O=C1/C(=C/c2ccc(O)c(Br)c2)Oc2c(Br)cc(Br)cc21 [JKT.634A] |  |  |  | 5.70 | 7.66 | 7.34 | 25.5 µM (≈ 12.1 µg/mL) | Inhibition of CK2A1 (CK2A1; in words): potent inhibition of both; Inhibition of CK2A2 (CK2A2; in words): potent inhibition of both
19 | O=c1cc(-c2ccc(O)c(Br)c2)oc2c(Br)cc(Cl)cc12 [JKT.714A] |  |  |  |  |  |  |  | pIC50 (IL-6 secretion; Table 3): 5.34; pIC50 (CK2A1; [5]): 7.92; pIC50 (CK2A2; [6]): 8.10; solubility (Aqueous solubility; [7]): 35.2 µM (≈ 15.2 µg/mL)
20 | O=c1cc(-c2ccc(O)c(Br)c2)oc2c(Cl)cc(Cl)cc12 [JKT.715A] |  |  |  |  |  |  |  | pIC50 (IL-6 secretion; Table 3): 5.39; pIC50 (CK2A1; [5]): 7.74; pIC50 (CK2A2; [6]): 7.80; solubility (Aqueous solubility; [7]): 120 µM (≈ 46.2 µg/mL)
